Measurements from paper PMC12133000 (PLOS One, 2025).
Read-outs that look alike come from different tables or passages of the source.

Experiment: Pharmacokinetics of rivaroxaban in rats after avitinib or gefitinib pretreatment
Assay type: in vivo, Sprague–Dawley (SD) rats
Conditions: male, Sprague-Dawley, rat, plasma, oral
Description: Eighteen male Sprague–Dawley (SD) rats weighing 300 ± 20 g were provided by the Experimental Animal Center of Wenzhou Medical University (Wenzhou, China) and kept under controlled conditions at a temperature of 23 ± 2 °C, relative humidity of 50 ± 10%, and 12 h light–dark cycle. Eighteen male SD rats were randomly assigned to three groups: avitinib, gefitinib, and control, with six rats per group. Prior to the experiment, the rats were not administered any other medications and fasted for 12 h. The experimental procedures and protocols adhered to Animal Ethics standards and were approved by the Animal Care and Use Committee of Wenzhou Medical University (approval no. wydw2019–650). All rats were anesthetized with sodium pentobarbital (40mg/kg, i.p) to relieve pain. The rats were killed through cervical dislocation.
Prior to the experiment in vivo, the six rats in the avitinib group were administered 30 mg/kg avitinib and 0.5% sodium carboxymethyl cellulose (CMC-Na) solution by gavage daily for 7 d. […] The supernatant was collected and stored at −80 °C. After thawing, 50 μL of plasma was extracted; 100 μL of acetonitrile solution containing midazolam (200 ng/mL) was then added to induce protein precipitation. After vortexing for 30 s and centrifuging at 13,000 rpm for 5 min, the […].
All assays were performed in triplicate, and the results are expressed as mean ± standard deviation. DAS software v. […] SPSS v. 25.0 (IBM, NY, USA) was used for data processing. Student’s t-tests were used to detect differences between groups. Differences with p < 0.05 were considered statistically significant.

concentration at 6 h (10 mg/kg, rivaroxaban ng/ml mean, control (rivaroxaban alone) group, mean of rats 13-18, time 6): 141 ng/mL
concentration at 8 h (10 mg/kg, rivaroxaban ng/ml mean, control (rivaroxaban alone) group, mean of rats 13-18, time 8): 93 ng/mL
concentration at 12 h (10 mg/kg, rivaroxaban ng/ml mean, control (rivaroxaban alone) group, mean of rats 13-18, time 12): 76.8 ng/mL
concentration at 0.25 h (10 mg/kg, rivaroxaban ng/ml, 对照 (control, rivaroxaban alone) group, individual rats 13-18, time 0.25): 305 ng/mL
concentration at 0.5 h (10 mg/kg, rivaroxaban ng/ml, 对照 (control, rivaroxaban alone) group, individual rats 13-18, time 0.5): 434 ng/mL
concentration at 1 h (10 mg/kg, rivaroxaban ng/ml, 对照 (control, rivaroxaban alone) group, individual rats 13-18, time 1): 458 ng/mL
concentration at 4 h (10 mg/kg, rivaroxaban ng/ml, 对照 (control, rivaroxaban alone) group, individual rats 13-18, time 4): 190 ng/mL
concentration at 12 h (gefitinib group, Mean, read-out: C_last): 2070 ng/mL
concentration at 5 min (plasma concentration of rivaroxaban, 5 min, avitinib group, Mean): 284 ng/mL
concentration at 5 min (plasma concentration of rivaroxaban, 5 min, avitinib group, single rats No1-No6): 237 ng/mL
concentration at 5 min (plasma concentration of rivaroxaban, 5 min, gefitinib group, Mean): 626 ng/mL
concentration at 0.25 h (plasma concentration of rivaroxaban, 0.25 h, avitinib group, Mean): 588 ng/mL
concentration at 0.25 h (plasma concentration of rivaroxaban, 0.25 h, gefitinib group, Mean): 1740 ng/mL
concentration at 0.25 h (plasma concentration of rivaroxaban, 0.25 h, gefitinib group, single rats No1-No6): 1690 ng/mL
concentration at 0.5 h (plasma concentration of rivaroxaban, 0.5 h, avitinib group, Mean): 1090 ng/mL
concentration at 0.5 h (plasma concentration of rivaroxaban, 0.5 h, gefitinib group, Mean): 3670 ng/mL
concentration at 0.5 h (plasma concentration of rivaroxaban, 0.5 h, gefitinib group, single rats No1-No6): 4080 ng/mL
concentration at 1 h (plasma concentration of rivaroxaban, 1 h, avitinib group, Mean): 1730 ng/mL
concentration at 1 h (plasma concentration of rivaroxaban, 1 h, gefitinib group, Mean): 5580 ng/mL
concentration at 1 h (plasma concentration of rivaroxaban, 1 h, gefitinib group, single rats No1-No6): 6110 ng/mL
concentration at 2 h (plasma concentration of rivaroxaban, 2 h, avitinib group, Mean): 1650 ng/mL
concentration at 2 h (plasma concentration of rivaroxaban, 2 h, gefitinib group, Mean): 7180 ng/mL
concentration at 3 h (plasma concentration of rivaroxaban, 3 h, avitinib group, Mean): 1390 ng/mL
concentration at 3 h (plasma concentration of rivaroxaban, 3 h, gefitinib group, Mean): 7690 ng/mL
concentration at 3 h (plasma concentration of rivaroxaban, 3 h, gefitinib group, single rats No1-No6): 6480 ng/mL
concentration at 4 h (plasma concentration of rivaroxaban, 4 h, avitinib group, Mean): 1010 ng/mL
concentration at 4 h (plasma concentration of rivaroxaban, 4 h, gefitinib group, Mean): 7800 ng/mL
concentration at 4 h (plasma concentration of rivaroxaban, 4 h, gefitinib group, single rats No1-No6): 6780 ng/mL
concentration at 6 h (plasma concentration of rivaroxaban, 6 h, avitinib group, Mean): 538 ng/mL
concentration at 6 h (plasma concentration of rivaroxaban, 6 h, gefitinib group, Mean): 5500 ng/mL
concentration at 6 h (plasma concentration of rivaroxaban, 6 h, gefitinib group, single rats No1-No6): 5830 ng/mL
concentration at 8 h (plasma concentration of rivaroxaban, 8 h, avitinib group, Mean): 448 ng/mL
concentration at 8 h (plasma concentration of rivaroxaban, 8 h, gefitinib group, Mean): 3710 ng/mL
concentration at 8 h (plasma concentration of rivaroxaban, 8 h, gefitinib group, single rats No1-No6): 4960 ng/mL
concentration at 12 h (plasma concentration of rivaroxaban, 12 h, avitinib group, Mean): 80.9 ng/mL
concentration at 12 h (plasma concentration of rivaroxaban, 12 h, gefitinib group, Mean): 1640 ng/mL
concentration at 24 h (rivaroxaban ng/ml mean, 吉非替尼 (gefitinib) group, mean (four rats), time 24): 144 ng/mL
concentration at 5 min (rivaroxaban ng/ml mean, 吉非替尼 (gefitinib) group, mean of rats 7-12, time 0.0833): 626 ng/mL
concentration at 0.25 h (rivaroxaban ng/ml mean, 吉非替尼 (gefitinib) group, mean of rats 7-12, time 0.25): 1740 ng/mL
concentration at 0.5 h (rivaroxaban ng/ml mean, 吉非替尼 (gefitinib) group, mean of rats 7-12, time 0.5): 3670 ng/mL
concentration at 1 h (rivaroxaban ng/ml mean, 吉非替尼 (gefitinib) group, mean of rats 7-12, time 1): 5580 ng/mL
concentration at 2 h (rivaroxaban ng/ml mean, 吉非替尼 (gefitinib) group, mean of rats 7-12, time 2): 7180 ng/mL
concentration at 3 h (rivaroxaban ng/ml mean, 吉非替尼 (gefitinib) group, mean of rats 7-12, time 3): 7690 ng/mL
concentration at 4 h (rivaroxaban ng/ml mean, 吉非替尼 (gefitinib) group, mean of rats 7-12, time 4): 7800 ng/mL
concentration at 6 h (rivaroxaban ng/ml mean, 吉非替尼 (gefitinib) group, mean of rats 7-12, time 6): 5500 ng/mL
concentration at 8 h (rivaroxaban ng/ml mean, 吉非替尼 (gefitinib) group, mean of rats 7-12, time 8): 3710 ng/mL
Compound: O=C(NC[C@H]1CN(c2ccc(N3CCOCC3=O)cc2)C(=O)O1)c1ccc(Cl)s1 [rivaroxaban, Rivaroxaban]
